Test results reported in PMC11456426, “Study of transport, tissue distribution, depletion, and hepatotoxicity of Cyadox, a quinoxaline-1,4-dioxide derivative” (Frontiers in Pharmacology, 2024).

Key:
[1] = Excretion study, recovery of total radioactivity after single oral [3H]-CYA; type: in vivo, Wistar rats
Method: For the excretion study, a group of six rats (3 male and 3 female) were housed individually in metabolism cages, which allowed separate collection of urine and feces, and then administered with a single dose of 10 mg/kg bw (corresponded to a feed inclusion of approximately 100 mg/kg dose) [^3H]-CYA by oral gavage. Dosing suspensions of [^3H]-CYA were prepared in 0.5% aqueous CMC at 2 mg/mL after [^3H]-CYA (2.08 Ci/mmol) was diluted with non-radiolabeled CYA to a specific activity of 4.52 × 10^4 dpm/µg. Urine and feces were collected from intact animals for 7 days at 0–12, 12–24, 24–48, 48–72, 72–96, 96–120, 120–144, and 144–168 h after the dose, and the total weight of the urine and feces was recorded after each collection. At the end of the study, the animals are anesthetized, and once it's confirmed that they have lost consciousness, they are euthanized by exsanguination. The samples were stored at −20°C until analysis. Contents of gastrointestinal tracts were pooled with feces of 144–168 h time point. Each metabolism cage was thoroughly rinsed with a mixture of methanol/water (1:1; V/V), and the rinse solvent was collected and weighed. Each cage rinse was stirred thoroughly, […] of subsamples were removed, and radioactivities were analyzed immediately. One animal per gender was administered with non-radiolabeled CYA at the same dose, and animals were sacrificed at 6 h post-dose. Urine, feces, and tissues were collected for the blank controls.
(§1) For radioactivity detection, the samples were combusted by PerkinElmer Oxidizer 307 (PerkinElmer Life and Analytical Sciences). ^3H2O was collected into 20 mL of scintillant (PerkinElmer Life and Analytical Sciences) with 10 mL of Monophase S, and sample radioassays were quantitated by PerkinElmer® TriCarb® 2900 (PerkinElmer Life and Analytical Sciences) with low-level quench-correction. Counting efficiency was above 65%.
(§2) Tissue samples for each sampling time from all animals were homogenized, aliquots of blood and urine were mixed thoroughly, and feces were homogenized in methanol/water (50:50; V/V). Samples of the blood (500 μL), urine (500 μL) feces (500 mg), bone, and all tissues (100–500 mg) were combusted in PerkinElmer Oxidizer 307 after being transferred into tared cones and pads (PerkinElmer Life and Analytical Sciences) and added an aliquot of Combustaid (200 μL; PerkinElmer Life and Analytical Sciences). Radioactivity in the combustion products was determined by collecting ^3H2O into distilled water followed by liquid scintillation counting. Combustion efficiency was determined daily, prior to the combustion of study samples, by using a diluted dose formulation or ^3H standard. The measured radioactivity content in the combusted samples was adjusted using the combustion efficiency values. Samples were analyzed for radioactivity for 5 min. Total residue concentrations were calculated from the specific activity and radioactivity per mass or volume and expressed as molar equivalents of CYA.

[2] = Tissue distribution and depletion after oral [3H]-CYA for seven consecutive days; type: in vivo, Wistar rats; details: rats; for Tissue distribution and depletion of CYA (means ± SD) / t1/2 (elimination half-life): oral 10 mg/kg·bw x 7 days; for Tissue distribution and depletion of CYA (means ± SD): n = 4
Method: For the tissue distribution study, 24 rats were divided into six groups, one group as a blank control and five groups as five time point groups. Each time point group consisted of 4 rats (2 male and 2 female) administered [^3H]-CYA orally by gavage at 10 mg/kg bw (corresponded to a feed inclusion of approximately 100 mg/kg dose) for seven consecutive days, respectively. Dosing suspensions of [^3H]-CYA (2.08 Ci/mmol) were prepared in 0.5% aqueous carboxymethyl cellulose (CMC) at 4 mg/mL after being diluted with non-radiolabeled CYA to a specific activity of 9,044 dpm/µg. Another group of 4 rats (2 male and 2 female) was fed separately from the radioactive administration group for the blank control under the same conditions, sacrificed at 0 day. One group of 2 male and 2 female rats was randomly selected to be slaughtered at each time point (0.25, 1, 3, 7, and 14 days) after withdrawal. The rats were dissected, and blood, muscle, heart, liver, lung, spleen, kidney, skin, stomach, large intestine, small intestine, brain, cecum, testicle (or ovary), bladder, and bone (thigh bone) were collected separately and stored at −20°C until analysis. The weight of each tissue was recorded. Gastrointestinal tracts were stripped of their contents.
as §1, §2

[3] = rats, single oral 10 mg/kg bw, 7 days

- radioactivity excreted, % of total dose ([1]; 0–12 h post-dose): 21.03%
- radioactivity excreted, % of total dose ([1]; 12–24 h post-dose): 70.25%
- drug-related radioactivity excreted, % of administration amount ([1]; first 24 h after administration): 91.28%
- radioactivity excreted in the feces [1, 3]: 60.25%
- radioactivity excreted in the urine [1, 3]: 34.81%
- radioactivity of the cage rinse [1, 3]: 0.78%
- radioactivity remaining in the carcass [1, 3]: 0.38%
- Overall recovery of total radioactivity ([1]; rats, single oral 10 mg/kg bw, within 7 days (168 h), n = 6): 96.22%
- Tissue distribution and depletion of CYA (means ± SD) ([2]; Bladder, 6 h after withdrawal): 0.98863 ± 0.19738 mg/kg
- Tissue distribution and depletion of CYA (means ± SD) ([2]; Blood, 6 h after withdrawal): 1.55298 ± 0.13322 mg/kg
- Tissue distribution and depletion of CYA (means ± SD) ([2]; Blood, 1 d after withdrawal): 0.78575 ± 0.05613 mg/kg
- Tissue distribution and depletion of CYA (means ± SD) ([2]; Blood, 3 d after withdrawal): 0.74887 ± 0.0257 mg/kg
- Tissue distribution and depletion of CYA (means ± SD) ([2]; Blood, 7 d after withdrawal): 0.06989 ± 0.03612 mg/kg
- t1/2 (elimination half-life) ([2]; Blood): 38.50 h
- Tissue distribution and depletion of CYA (means ± SD) ([2]; Bone, 6 h after withdrawal): 0.49469 ± 0.05879 mg/kg
- Tissue distribution and depletion of CYA (means ± SD) ([2]; Bone, 1 d after withdrawal): 0.28043 ± 0.05615 mg/kg
- Tissue distribution and depletion of CYA (means ± SD) ([2]; Brain, 6 h after withdrawal): 0.62702 ± 0.06033 mg/kg
- Tissue distribution and depletion of CYA (means ± SD) ([2]; Brain, 1 d after withdrawal): 0.45064 ± 0.04138 mg/kg
- Tissue distribution and depletion of CYA (means ± SD) ([2]; Caecum, 6 h after withdrawal): 15.5409 ± 2.03867 mg/kg
- Tissue distribution and depletion of CYA (means ± SD) ([2]; Caecum, 1 d after withdrawal): 0.56384 ± 0.06558 mg/kg
- Tissue distribution and depletion of CYA (means ± SD) ([2]; Caecum, 3 d after withdrawal): 0.02075 ± 0.01112 mg/kg
- t1/2 (elimination half-life) ([2]; Caecum): 7.45 h
- Tissue distribution and depletion of CYA (means ± SD) ([2]; Heart, 6 h after withdrawal): 1.091 ± 0.1971 mg/kg
- Tissue distribution and depletion of CYA (means ± SD) ([2]; Heart, 1 d after withdrawal): 0.66217 ± 0.10149 mg/kg
- Tissue distribution and depletion of CYA (means ± SD) ([2]; Heart, 3 d after withdrawal): 0.24376 ± 0.04678 mg/kg
- t1/2 (elimination half-life) ([2]; Heart): 31.50 h
- Tissue distribution and depletion of CYA (means ± SD) ([2]; Kidney, 6 h after withdrawal): 6.24527 ± 0.67361 mg/kg
- Tissue distribution and depletion of CYA (means ± SD) ([2]; Kidney, 1 d after withdrawal): 2.03447 ± 0.34637 mg/kg
- Tissue distribution and depletion of CYA (means ± SD) ([2]; Kidney, 3 d after withdrawal): 1.14528 ± 0.11569 mg/kg
- Tissue distribution and depletion of CYA (means ± SD) ([2]; Kidney, 7 d after withdrawal): 0.08605 ± 0.04177 mg/kg
- t1/2 (elimination half-life) ([2]; Kidney): 28.88 h
- Tissue distribution and depletion of CYA (means ± SD) ([2]; Large Intestine, 6 h after withdrawal): 2.32296 ± 0.11341 mg/kg
- Tissue distribution and depletion of CYA (means ± SD) ([2]; Large Intestine, 1 d after withdrawal): 0.5581 ± 0.05702 mg/kg
- Tissue distribution and depletion of CYA (means ± SD) ([2]; Large Intestine, 3 d after withdrawal): 0.12977 ± 0.0238 mg/kg
- t1/2 (elimination half-life) ([2]; Large Intestine): 16.90 h
- Tissue distribution and depletion of CYA (means ± SD) ([2]; Liver, 6 h after withdrawal): 5.04944 ± 0.37061 mg/kg
- Tissue distribution and depletion of CYA (means ± SD) ([2]; Liver, 1 d after withdrawal): 2.35504 ± 0.25805 mg/kg
- Tissue distribution and depletion of CYA (means ± SD) ([2]; Liver, 3 d after withdrawal): 1.4301 ± 0.17539 mg/kg
- Tissue distribution and depletion of CYA (means ± SD) ([2]; Liver, 7 d after withdrawal): 0.12635 ± 0.04235 mg/kg
- t1/2 (elimination half-life) ([2]; Liver): 33.00 h
- Tissue distribution and depletion of CYA (means ± SD) ([2]; Lung, 6 h after withdrawal): 1.88405 ± 0.29415 mg/kg
- Tissue distribution and depletion of CYA (means ± SD) ([2]; Lung, 1 d after withdrawal): 1.68108 ± 0.11214 mg/kg
- Tissue distribution and depletion of CYA (means ± SD) ([2]; Lung, 3 d after withdrawal): 0.79745 ± 0.09581 mg/kg
- Tissue distribution and depletion of CYA (means ± SD) ([2]; Lung, 7 d after withdrawal): 0.04918 ± 0.01852 mg/kg
- t1/2 (elimination half-life) ([2]; Lung): 30.13 h
- Tissue distribution and depletion of CYA (means ± SD) ([2]; Muscle, 6 h after withdrawal): 0.96902 ± 0.06106 mg/kg
- Tissue distribution and depletion of CYA (means ± SD) ([2]; Muscle, 1 d after withdrawal): 0.52982 ± 0.05487 mg/kg
- Tissue distribution and depletion of CYA (means ± SD) ([2]; Ovary, 6 h after withdrawal): 2.88421 ± 0.06688 mg/kg
- Tissue distribution and depletion of CYA (means ± SD) ([2]; Ovary, 1 d after withdrawal): 0.32655 ± 0.03923 mg/kg
- Tissue distribution and depletion of CYA (means ± SD) ([2]; Ovary, 3 d after withdrawal): 0.01887 ± 0.00619 mg/kg
- t1/2 (elimination half-life) ([2]; Ovary): 9.63 h
- Tissue distribution and depletion of CYA (means ± SD) ([2]; Skin/Fat, 6 h after withdrawal): 1.2996 ± 0.23417 mg/kg
- Tissue distribution and depletion of CYA (means ± SD) ([2]; Skin/Fat, 1 d after withdrawal): 1.03596 ± 0.07642 mg/kg
- Tissue distribution and depletion of CYA (means ± SD) ([2]; Skin/Fat, 3 d after withdrawal): 0.42024 ± 0.03644 mg/kg
- Tissue distribution and depletion of CYA (means ± SD) ([2]; Skin/Fat, 7 d after withdrawal): 0.0253 ± 0.02233 mg/kg
- Tissue distribution and depletion of CYA (means ± SD) ([2]; Small Intestine, 6 h after withdrawal): 2.86777 ± 0.1072 mg/kg
- Tissue distribution and depletion of CYA (means ± SD) ([2]; Small Intestine, 1 d after withdrawal): 0.46368 ± 0.12091 mg/kg
- Tissue distribution and depletion of CYA (means ± SD) ([2]; Small Intestine, 3 d after withdrawal): 0.05785 ± 0.01762 mg/kg
- t1/2 (elimination half-life) ([2]; Small Intestine): 12.60 h
- Tissue distribution and depletion of CYA (means ± SD) ([2]; Spleen, 6 h after withdrawal): 1.1278 ± 0.08725 mg/kg
- Tissue distribution and depletion of CYA (means ± SD) ([2]; Spleen, 1 d after withdrawal): 0.75931 ± 0.04725 mg/kg
- Tissue distribution and depletion of CYA (means ± SD) ([2]; Spleen, 3 d after withdrawal): 0.2717 ± 0.05323 mg/kg
- Tissue distribution and depletion of CYA (means ± SD) ([2]; Spleen, 7 d after withdrawal): 0.02521 ± 0.04114 mg/kg
- t1/2 (elimination half-life) ([2]; Spleen): 30.13 h
- Tissue distribution and depletion of CYA (means ± SD) ([2]; Stomach, 6 h after withdrawal): 2.29013 ± 0.61619 mg/kg
- Tissue distribution and depletion of CYA (means ± SD) ([2]; Stomach, 1 d after withdrawal): 0.44866 ± 0.04356 mg/kg
- Tissue distribution and depletion of CYA (means ± SD) ([2]; Stomach, 3 d after withdrawal): 0.14233 ± 0.00993 mg/kg
- t1/2 (elimination half-life) ([2]; Stomach): 18.24 h
- Tissue distribution and depletion of CYA (means ± SD) ([2]; Testicle, 6 h after withdrawal): 1.05196 ± 0.00706 mg/kg
- Tissue distribution and depletion of CYA (means ± SD) ([2]; Testicle, 1 d after withdrawal): 0.74037 ± 0.07782 mg/kg
- Tissue distribution and depletion of CYA (means ± SD) ([2]; Testicle, 3 d after withdrawal): 0.3319 ± 0.05429 mg/kg
- t1/2 (elimination half-life) ([2]; Testicle): 40.76 h
- time of maximum concentrations in all detected organs or tissues ([2]; oral 10 mg/kg bw for seven consecutive days): 6 h
SMILES: [3H]c1ccc2c(c1)[n+]([O-])cc(/C=N/NC(=O)CC#N)[n+]2[O-] [[^3H]-CYA]
